Reference: the NIST ThermoML archive (doi:10.1021/je0601208)

What was measured:
[1] = xn = mol fraction of the nth substance listed
[2] = refractive index (Na D-line) (dimensionless); xn = mol fraction of the nth substance listed; conditions: 100.5 kPa, Liquid, Standard Abbe refractometry

CC(=O)OCCC(C)C [3-methylbutyl ethanoate] + CCO
Conditions	refractive index, [2]	surface tension liquid-gas, [1] [mN/m]
288.15 K, x1 = 0.05	1.36803	23.2
288.15 K, x1 = 0.1	1.37207	23.4
288.15 K, x1 = 0.15	1.37559	23.6
288.15 K, x1 = 0.2	1.3787	23.7
288.15 K, x1 = 0.25	1.38146	23.8
288.15 K, x1 = 0.3	1.38393	24
288.15 K, x1 = 0.35	1.38614	24.1
288.15 K, x1 = 0.4	1.38814	24.2
288.15 K, x1 = 0.45	1.38996	24.3
288.15 K, x1 = 0.5	1.39164	24.4
288.15 K, x1 = 0.55	1.39319	24.5
288.15 K, x1 = 0.6	1.39462	24.6
288.15 K, x1 = 0.65	1.39595	24.7
288.15 K, x1 = 0.7	1.39717	24.8
288.15 K, x1 = 0.75	1.39829	24.9
288.15 K, x1 = 0.8	1.39933	25
288.15 K, x1 = 0.85	1.40031	25.1
288.15 K, x1 = 0.9	1.40122	25.2
288.15 K, x1 = 0.95	1.40207	25.3
288.15 K, x1 = 1	1.40288	25.4
298.15 K, x1 = 0.05	1.36393	22.4
298.15 K, x1 = 0.1	1.36787	22.5
298.15 K, x1 = 0.15	1.37133	22.7
298.15 K, x1 = 0.2	1.3744	22.8
298.15 K, x1 = 0.25	1.37712	22.9
298.15 K, x1 = 0.3	1.37954	–
298.15 K, x1 = 0.35	1.38172	23
298.15 K, x1 = 0.4	1.3837	23.1
298.15 K, x1 = 0.45	1.3855	23.2
298.15 K, x1 = 0.5	1.38717	23.3
298.15 K, x1 = 0.55	1.38871	23.4
298.15 K, x1 = 0.6	1.39013	23.5
298.15 K, x1 = 0.65	1.39144	23.6
298.15 K, x1 = 0.7	1.39265	23.7
298.15 K, x1 = 0.75	1.39378	23.8
298.15 K, x1 = 0.8	1.39482	23.9
298.15 K, x1 = 0.85	1.3958	24
298.15 K, x1 = 0.9	1.3967	24.1
298.15 K, x1 = 0.95	1.39755	24.2
298.15 K, x1 = 1	1.39836	24.3
308.15 K, x1 = 0.05	1.35964	21.6
308.15 K, x1 = 0.1	1.36349	21.6
308.15 K, x1 = 0.15	1.3669	21.7
308.15 K, x1 = 0.2	1.36992	21.8
308.15 K, x1 = 0.25	1.3726	21.9
308.15 K, x1 = 0.3	1.37499	22
308.15 K, x1 = 0.35	1.37714	22.1
308.15 K, x1 = 0.4	1.37909	22.2
308.15 K, x1 = 0.45	1.38087	22.3
308.15 K, x1 = 0.5	1.38251	22.4
308.15 K, x1 = 0.55	1.38404	22.5
308.15 K, x1 = 0.6	1.38545	22.6
308.15 K, x1 = 0.65	1.38675	22.7
308.15 K, x1 = 0.7	1.38795	22.8
308.15 K, x1 = 0.75	1.38907	22.9
308.15 K, x1 = 0.8	1.39011	23
308.15 K, x1 = 0.85	1.39109	23.1
308.15 K, x1 = 0.9	1.39199	23.2
308.15 K, x1 = 0.95	1.39284	23.3
308.15 K, x1 = 1	1.39365	23.4
318.15 K, x1 = 0.05	1.35556	20.6
318.15 K, x1 = 0.1	1.3593	20.6
318.15 K, x1 = 0.15	1.36263	20.7
318.15 K, x1 = 0.2	1.36558	20.8
318.15 K, x1 = 0.25	1.36821	20.9
318.15 K, x1 = 0.3	1.37056	21
318.15 K, x1 = 0.35	1.37268	21.1
318.15 K, x1 = 0.4	1.3746	21.2
318.15 K, x1 = 0.45	1.37634	21.3
318.15 K, x1 = 0.5	1.37795	21.4
318.15 K, x1 = 0.55	1.37944	21.5
318.15 K, x1 = 0.6	1.38082	21.6
318.15 K, x1 = 0.65	1.38211	21.7
318.15 K, x1 = 0.7	1.3833	21.8
318.15 K, x1 = 0.75	1.3844	21.9
318.15 K, x1 = 0.8	1.38543	22
318.15 K, x1 = 0.85	1.3864	22.1
318.15 K, x1 = 0.9	1.3873	22.2
318.15 K, x1 = 0.95	1.38814	22.3
318.15 K, x1 = 1	1.38895	22.4

CCOC(=O)c1ccccc1 [ethyl benzoate] + CCO
Conditions	refractive index, 288.15 K	refractive index, 298.15 K	refractive index, 308.15 K	refractive index, 318.15 K	surface tension liquid-gas, 288.15 K [mN/m]	surface tension liquid-gas, 298.15 K [mN/m]	surface tension liquid-gas, 308.15 K [mN/m]	surface tension liquid-gas, 318.15 K [mN/m]
[1], x1 = 0.05	–	–	–	–	23.9	23.1	22.2	21.3
[1], x1 = 0.1	–	–	–	–	24.7	23.9	23	22.1
[1], x1 = 0.15	–	–	–	–	25.5	24.6	23.7	22.8
[1], x1 = 0.2	–	–	–	–	26.2	25.3	24.4	23.5
[1], x1 = 0.25	–	–	–	–	26.9	26	25	24.1
[1], x1 = 0.3	–	–	–	–	27.5	26.6	25.6	24.7
[1], x1 = 0.35	–	–	–	–	28.1	27.2	26.1	25.3
[1], x1 = 0.4	–	–	–	–	28.7	27.7	26.7	25.8
[1], x1 = 0.45	–	–	–	–	29.2	28.3	27.2	26.3
[1], x1 = 0.5	–	–	–	–	29.7	28.7	27.7	26.8
[1], x1 = 0.55	–	–	–	–	30.2	29.2	28.1	27.3
[1], x1 = 0.6	–	–	–	–	30.7	29.7	28.6	27.8
[1], x1 = 0.65	–	–	–	–	31.2	30.2	29.1	28.3
[1], x1 = 0.7	–	–	–	–	31.8	30.8	29.6	28.8
[1], x1 = 0.75	–	–	–	–	32.3	31.3	30.1	29.3
[1], x1 = 0.8	–	–	–	–	32.9	31.9	30.6	29.8
[1], x1 = 0.85	–	–	–	–	33.6	32.5	31.2	30.4
[1], x1 = 0.9	–	–	–	–	34.3	33.2	31.9	31
[1], x1 = 0.95	–	–	–	–	35	33.9	32.6	31.8
[1], x1 = 1	–	–	–	–	35.7	34.6	33.3	32.5
[2], x1 = 0.05	1.38111	1.37682	1.37237	1.36815	–	–	–	–
[2], x1 = 0.1	1.39597	1.39165	1.38717	1.38279	–	–	–	–
[2], x1 = 0.15	1.40895	1.40452	1.39997	1.39551	–	–	–	–
[2], x1 = 0.2	1.42035	1.41593	1.41131	1.40679	–	–	–	–
[2], x1 = 0.25	1.43037	1.42598	1.42135	1.41678	–	–	–	–
[2], x1 = 0.3	1.43936	1.43498	1.43033	1.42576	–	–	–	–
[2], x1 = 0.35	1.44743	1.44303	1.4384	1.43378	–	–	–	–
[2], x1 = 0.4	1.45479	1.45038	1.44571	1.44105	–	–	–	–
[2], x1 = 0.45	1.46145	1.45702	1.45236	1.44765	–	–	–	–
[2], x1 = 0.5	1.4675	1.46309	1.45841	1.45369	–	–	–	–
[2], x1 = 0.55	1.47305	1.46865	1.46393	1.45918	–	–	–	–
[2], x1 = 0.6	1.47816	1.47372	1.46901	1.46424	–	–	–	–
[2], x1 = 0.65	1.48283	1.4784	1.47368	1.4689	–	–	–	–
[2], x1 = 0.7	1.48715	1.48273	1.47801	1.47321	–	–	–	–
[2], x1 = 0.75	1.49115	1.48675	1.48203	1.47724	–	–	–	–
[2], x1 = 0.8	1.49488	1.49047	1.48578	1.48098	–	–	–	–
[2], x1 = 0.85	1.4984	1.49401	1.48929	1.48449	–	–	–	–
[2], x1 = 0.9	1.5017	1.49731	1.49257	1.48776	–	–	–	–
[2], x1 = 0.95	1.50477	1.50037	1.49565	1.49086	–	–	–	–
[2], x1 = 1	1.5076	1.50328	1.49863	1.49391	–	–	–	–
